Experimental data as given in US10093678B2, “Azaspiro derivatives as TRPM8 antagonists” (RaQualia Pharma Inc., priority 2014, dated 2018).

What follows are molecules tested against T1, human TRPM8 (Homo sapiens, UniProt Q7Z2W7) (assay: Menthol-induced Ca2+ influx in HEK293 cells stably expressing human TRPM8). Conditions: 30 microM menthol-induced Ca2+ influx, read-out: IC50 against TRPM8.
T1 construct: expressed in transfected cells; host or cells: HEK293
Type: cell-based
Procedure, shortened: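 IC50 values were fitted from 11-point dose-response data averaged over duplicate wells. Compound was added for 5 min to Fluo4-loaded HEK293 cells carrying stable human TRPM8, in HBSS/HEPES pH 7.4 with probenecid. Intracellular Ca2+ change after 30 microM menthol addition was then imaged on FDSS.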

T1 sequence (Q7Z2W7 whole entry): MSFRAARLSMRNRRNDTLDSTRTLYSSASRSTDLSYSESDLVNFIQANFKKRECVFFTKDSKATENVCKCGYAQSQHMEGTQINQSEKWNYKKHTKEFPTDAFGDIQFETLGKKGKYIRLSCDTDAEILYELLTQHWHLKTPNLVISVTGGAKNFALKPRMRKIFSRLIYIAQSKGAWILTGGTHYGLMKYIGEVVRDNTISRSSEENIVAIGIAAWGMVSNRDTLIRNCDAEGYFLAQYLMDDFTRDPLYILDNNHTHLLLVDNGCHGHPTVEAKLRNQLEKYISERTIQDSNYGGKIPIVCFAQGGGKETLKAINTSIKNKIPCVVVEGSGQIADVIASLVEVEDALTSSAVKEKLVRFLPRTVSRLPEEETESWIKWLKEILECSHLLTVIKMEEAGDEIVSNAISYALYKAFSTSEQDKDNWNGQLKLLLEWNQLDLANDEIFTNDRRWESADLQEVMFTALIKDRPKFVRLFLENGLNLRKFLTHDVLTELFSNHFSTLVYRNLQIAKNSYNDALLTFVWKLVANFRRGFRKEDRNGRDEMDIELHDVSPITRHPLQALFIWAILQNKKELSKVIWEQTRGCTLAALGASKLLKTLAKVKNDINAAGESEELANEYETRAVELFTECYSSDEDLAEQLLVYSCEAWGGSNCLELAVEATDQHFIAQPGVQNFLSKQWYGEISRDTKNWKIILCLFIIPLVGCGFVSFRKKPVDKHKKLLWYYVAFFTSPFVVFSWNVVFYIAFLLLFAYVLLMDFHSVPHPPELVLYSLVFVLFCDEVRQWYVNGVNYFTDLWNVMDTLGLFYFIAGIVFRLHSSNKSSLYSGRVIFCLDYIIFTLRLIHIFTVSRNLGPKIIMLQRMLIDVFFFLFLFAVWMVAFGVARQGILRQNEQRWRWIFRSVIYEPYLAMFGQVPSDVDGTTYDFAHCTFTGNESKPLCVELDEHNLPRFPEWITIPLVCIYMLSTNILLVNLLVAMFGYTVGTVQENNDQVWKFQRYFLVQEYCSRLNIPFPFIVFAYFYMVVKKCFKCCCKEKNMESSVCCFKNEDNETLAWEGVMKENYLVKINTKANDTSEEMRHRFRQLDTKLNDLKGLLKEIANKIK

Row | Compound | IC50
1 | O=C(CN1C(=O)NC2(CCC(F)(F)CC2)C1=O)c1ccc(-c2cnccn2)cc1 [Example 6-100] | < 500 nM
2 | Cc1c(C(=O)CN2C(=O)NC3(CCC(F)(F)CC3)C2=O)cn(C)c1-c1ccccc1C#N [Example 16-25] | < 100 nM
3 | O=C(CN1C(=O)NC2(CCC(F)(F)CC2)C1=O)c1ccc(-c2nccc3[nH]ncc23)cc1 [Example 6-20] | < 100 nM
4 | Cc1cc(C(=O)CN2C(=O)NC3(CCC(F)(F)CC3)C2=O)sc1-c1cnccc1C(F)(F)F [Example 14-15] | < 100 nM
5 | Cc1nc2ccccc2n1-c1ccc(C(=O)CN2C(=O)NC3(CCCCCC3)C2=O)cc1 [Example 5-13] | < 100 nM
6 | O=C(CN1C(=O)NC2(CCC(F)(F)CC2)C1=O)c1ccc(-c2cnc3cccnn23)cc1 [Example 6-116] | < 100 nM
7 | O=C(CN1C(=O)NC2(CCCCC2)C1=O)c1ccc(-c2ccccc2CO)nc1 [Example 9-5] | < 100 nM
8 | N#Cc1cccnc1-c1ccc(C(=O)CN2C(=O)NC3(CCCCC3)C2=O)cc1 [Example 7-12] | < 100 nM
9 | O=C(CN1C(=O)NC2(CCCCC2)C1=O)c1ccc(-c2cccnc2CO)cc1 [Example 7-11] | < 100 nM
10 | Cc1ccncc1-c1c(C)cc(C(=O)CN2C(=O)NC3(CCC(F)(F)CC3)C2=O)n1C [Example 16-10] | < 100 nM
11 | CCc1nc2cccnc2n1-c1ccc(C(=O)CN2C(=O)NC3(CCC(F)(F)CC3)C2=O)cc1 [Example 24-2] | < 500 nM
12 | Cc1cc(C(=O)CN2C(=O)NC3(CCC(F)(F)CC3)C2=O)n(C)c1-c1cccc(C#N)c1 [Example 16-4] | < 10 nM
13 | O=C(CN1C(=O)NC2(CCC(F)(F)CC2)C1=O)c1cc2cc(-c3cccnc3)ccc2o1 [Example 13-69] | < 500 nM
14 | Cc1cc(-n2c(C)cc(C(=O)CN3C(=O)OC4(CCCCC4)C3=O)c2C)no1 [Example 1-3] | < 100 nM
15 | Cc1sc(C(=O)CN2C(=O)NC3(CCC(F)(F)CC3)C2=O)c(C)c1-c1cncnc1 [Example 15-5] | < 100 nM
16 | Cc1cccc(-c2c(C)cc(C(=O)CN3C(=O)NC4(CCC(F)(F)CC4)C3=O)n2C)c1 [Example 16-18] | < 100 nM
17 | N#Cc1nccnc1-c1ccc(C(=O)CN2C(=O)NC3(CCC(F)(F)CC3)C2=O)cc1 [Example 6-3] | < 10 nM
18 | Cc1ccccc1-c1cnc(C(=O)CN2C(=O)NC3(CCC(F)(F)CC3)C2=O)cn1 [Example 12-2] | < 100 nM
19 | O=C(CN1C(=O)NC2(CCC(F)(F)CC2)C1=O)c1ccc(-c2cccc3ccncc23)c(Cl)c1 [Example 13-29] | < 100 nM
20 | O=C1Cc2c(cccc2-c2ccc(C(=O)CN3C(=O)NC4(CCC(F)(F)CC4)C3=O)cn2)N1 [Example 9-19] | < 100 nM
21 | O=C(CN1C(=O)NC2(CCCCC2)C1=O)c1ccc(Oc2cccc(Cl)c2)nc1 [Example 20-1, 3-(2-(6-(3-chlorophenoxy)pyridin-3-yl)-2-oxoethyl)-1,3-diazaspiro[4.5]decane-2,4-dione] | < 100 nM
22 | N#Cc1cccc(-c2ccc(C(=O)CN3C(=O)OC4(CCC(F)(F)CC4)C3=O)cc2)n1 [Example 7-25] | < 100 nM
23 | Cc1cccc(-n2c(C)nc(C(=O)CN3C(=O)NC4(CCC(F)(F)CC4)C3=O)c2C)c1 [Example 2-12] | < 100 nM
24 | NC(=O)c1cccc(-c2ccc(C(=O)CN3C(=O)NC4(CCC(F)(F)CC4)C3=O)cc2)c1 [Example 6-110] | < 500 nM
25 | Cc1nc2ccccc2n1-c1ccc(C(=O)CN2C(=O)NC3(CCC(F)(F)CC3)C2=O)cc1 [Example 5-8] | < 100 nM

Row | Compound | IC50
26 | Cc1sc(C(=O)CN2C(=O)NC3(CCC(F)(F)CC3)C2=O)c(C)c1-c1ccccc1C#N [Example 15-1] | < 100 nM
27 | O=C(CN1C(=O)NC2(CCC(F)(F)CC2)C1=O)c1ccc(-c2cccc3cccnc23)c(F)c1 [Example 13-21] | < 100 nM
28 | Cc1nc2cccnc2n1-c1ccc(C(=O)CN2C(=O)NC3(CCCCC3)C2=O)cn1 [Example 5-33] | < 100 nM
29 | O=C(CN1C(=O)NC2(CCC(F)(F)CC2)C1=O)c1ccc(-c2cccc3cnccc23)nc1 [Example 9-21] | < 100 nM
30 | O=C(CN1C(=O)NC2(CCC(F)(F)CC2)C1=O)c1ccc(N2CCOc3ccccc32)cc1 [Example 19-20] | < 100 nM
31 | Cc1cncc(-c2ccc(C(=O)CN3C(=O)NC4(CCC(F)(F)CC4)C3=O)cc2)n1 [Example 6-28] | < 100 nM
32 | Cc1cnc(C)c(-c2ccc(C(=O)CN3CC4(CCC(F)(F)CC4)OC3=O)cc2)n1 [Example 7-17] | < 500 nM
33 | O=C(CN1C(=O)NC2(CCC(F)(F)CC2)C1=O)c1ccc(-c2cccnc2CO)nc1 [Example 9-25] | < 100 nM
34 | O=C(CN1C(=O)NC2(CCC(F)(F)CC2)C1=O)c1ccc(Oc2ncccn2)cc1 [Example 5-20] | < 100 nM
35 | O=C(CN1C(=O)NC2(CCC(F)(F)CC2)C1=O)c1ccc(-c2ncnc3cnccc23)cc1 [Example 6-51] | < 500 nM
36 | O=C(CN1C(=O)NC2(CCC(F)(F)CC2)C1=O)c1ccc(-n2ccc3cccnc32)cc1 [Example 19-17] | < 100 nM
37 | O=C(CN1C(=O)NC2(CCCCC2)C1=O)c1ccc(-c2cccnc2)nc1 [Example 5-2] | < 100 nM
38 | Cc1ccc2nc(C)n(-c3ccc(C(=O)CN4CC5(CCC(F)(F)CC5)OC4=O)cc3)c2n1 [Example 22-6] | < 500 nM
39 | Cc1nc2cccnc2n1-c1ccc(C(=O)CN2CC3(CCC(F)(F)CC3)OC2=O)cc1 [Example 22-2] | < 500 nM
40 | Cc1cccc(-n2c(C)nc(C(=O)CN3C(=O)CC4(CCC(F)(F)CC4)C3=O)c2C)c1 [Example 2-8] | < 500 nM
41 | O=C(CN1C(=O)NC2(CCC(F)(F)CC2)C1=O)c1ccc(-c2cccc3cnccc23)c(F)c1 [Example 13-22] | < 100 nM
42 | Cc1ccc(C)c(-c2ccc(C(=O)CN3C(=O)NC4(CCC(F)(F)CC4)C3=O)cc2)c1 [Example 6-78] | < 500 nM
43 | O=C(CN1CC2(CCC(F)(F)CC2)OC1=O)c1ccc(-c2cccc3cccnc23)cc1 [Example 13-57] | < 500 nM
44 | Cc1cccc(Oc2ccc(C(=O)CN3C(=O)NC4(CCCCC4)C3=O)cn2)c1 [Example 20-3] | < 500 nM
45 | Nc1cccnc1-c1ccc(C(=O)CN2C(=O)NC3(CCC(F)(F)CC3)C2=O)cc1 [Example 6-80] | < 500 nM
46 | O=C(CN1C(=O)NC2(CCC(F)(F)CC2)C1=O)c1ccc(Oc2cccnn2)cc1 [Example 5-22] | < 100 nM
47 | Cc1cc(C(=O)CN2C(=O)NC3(CCCCC3)C2=O)sc1-c1cccnc1 [Example 14-1] | < 100 nM
48 | O=C(CN1C(=O)NC2(CCCCCC2)C1=O)c1ccc(Oc2cccnn2)cc1 [Example 5-41] | < 100 nM
49 | Cc1c(C(=O)CN2C(=O)NC3(CCC(F)(F)CC3)C2=O)cn(C)c1-c1cncc(F)c1 [Example 16-23] | < 100 nM
50 | Cc1nc(C(=O)CN2C(=O)NC3(CCC(F)(F)CC3)C2=O)n(C)c1-c1cc(F)cc(F)c1 [Example 17-11] | < 100 nM

Row | Compound | IC50
51 | Cc1nc(C(=O)CN2C(=O)NC3(CCC(F)(F)CC3)C2=O)sc1-c1cccc(F)c1 [Example 18-5] | < 100 nM
52 | O=C(CN1C(=O)NC2(CCC(F)(F)CC2)C1=O)c1ccc(-c2cccc3nccn23)cc1 [Example 6-21] | < 100 nM
53 | O=C(CN1C(=O)NC2(CCCCC2)C1=O)c1ccc(-c2ccccc2CO)cc1 [Example 13-1] | < 100 nM
54 | N#Cc1cccc(-c2ccc(C(=O)CN3C(=O)NC4(CCCCC4)C3=O)cn2)c1 [Example 9-9] | < 100 nM
55 | Cc1cccc(-n2c(C)cc(C(=O)CN3C(=O)NC4(CCCCC4)C3=O)c2C)c1 [Example 3-6] | < 100 nM
56 | Cc1nc(C(=O)CN2C(=O)NC3(CCC(F)(F)CC3)C2=O)n(C)c1-c1ccccc1CO [Example 17-10] | < 100 nM
57 | Cc1cncc(-n2c(C)cc(C(=O)CN3C(=O)NC4(CC5CCC4C5)C3=O)c2C)c1 (stereo not shown) [Example 3-10] | < 100 nM
58 | Cc1nc(C(=O)CN2C(=O)NC3(CCC(F)(F)CC3)C2=O)sc1-c1cccnc1 [Example 18-1] | < 100 nM
59 | Nc1nccnc1-c1ccc(C(=O)CN2C(=O)NC3(CCC(F)(F)CC3)C2=O)cc1 [Example 6-117] | < 500 nM
60 | O=C(CN1C(=O)NC2(CCC(F)(F)CC2)C1=O)c1cnc(-c2ccccc2CO)cn1 [Example 12-3] | < 100 nM
61 | Cc1ccncc1-c1c(F)cc(C(=O)CN2C(=O)NC3(CCC(F)(F)CC3)C2=O)cc1F [Example 13-30] | < 100 nM
62 | O=C(CN1C(=O)NC2(CCC(F)(F)CC2)C1=O)c1cnc(-c2cccc3cccnc23)cn1 [Example 12-6] | < 100 nM
63 | O=C(CN1C(=O)NC2(CCC(F)(F)CC2)C1=O)c1ccc(-c2ccccc2CN2CCCC2)cc1 [Example 6-104] | < 500 nM
64 | Cc1nc(C(=O)CN2C(=O)NC3(CCC(F)(F)CC3)C2=O)n(C)c1-c1cccnc1 [Example 17-12] | < 500 nM
65 | Cc1ccc2nc(C(F)(F)F)n(-c3ccc(C(=O)CN4C(=O)NC5(CCC(F)(F)CC5)C4=O)cc3)c2n1 [Example 24-7, 8,8-difluoro-3-(2-(4-(5-methyl-2-(trifluoromethyl)-3H-imidazo[4,5-b]pyridin-3-yl)phenyl)-2-oxoethyl)-1,3-diazaspiro[4.5]decane-2,4-dione] | < 10 nM
66 | Cc1ccncc1-c1sc(C(=O)CN2C(=O)NC3(CCCCC3)C2=O)cc1C [Example 14-3] | < 100 nM
67 | Cc1nc(C(=O)CN2C(=O)NC3(CCC(F)(F)CC3)C2=O)c(C)n1-c1ccccc1 [Example 2-2] | < 100 nM
68 | CC(=O)c1ccccc1-c1ccc(C(=O)CN2C(=O)NC3(CCC(F)(F)CC3)C2=O)cc1 [Example 6-102] | < 500 nM
69 | Cc1ccccc1-c1c(C)sc(C(=O)CN2C(=O)NC3(CCC(F)(F)CC3)C2=O)c1C [Example 15-9] | < 500 nM
70 | O=C(CN1C(=O)NC2(CCC(F)(F)CC2)C1=O)c1ccc(-c2ccnc3[nH]ccc23)nc1 [Example 9-22] | < 100 nM
71 | O=C(CN1C(=O)NC2(CCCCC2)C1=O)c1ccc(Oc2cccnn2)cc1 [Example 5-40] | < 500 nM
72 | O=C(CN1C(=O)OC2(CCC(F)(F)CC2)C1=O)c1ccc(-c2ccccn2)cc1 [Example 7-24] | < 100 nM
73 | Cc1cc(-n2c(C)cc(C(=O)CN3C(=O)OC4(CC5CCC4C5)C3=O)c2C)no1 (stereo not shown) [Example 1-4] | < 500 nM
